Source: patent publication US5338726A, “Endothelin converting enzyme inhibitors” (Abbott Laboratories, priority 1992, dated 1994)
Structures can show the parent of a compound that is named as a salt.

Biological target: solubilized endothelin converting enzyme (P3 from rat lung)
Assay: ECE Inhibitor Screening Assay
Format: biochemical
Conditions: Big ET substrate, 30 minutes at 37° C., HPLC of ET-1 and Big ET, read-out: Inhibition of Endothelin Converting Enzyme IC50
Experimental: The above mixture without the test compound was used as the control.
Following a 15 minute preincubation at 37° C., benzyl succinate (100 μM), NaOAc, and Big ET (3 μg) were added. The mixture was incubated for 30 minutes at 37° C., followed by addition of pepstatin (40 μM) and 10% TFA to stop the reaction. The mixture was vortexed, centrifuged and the supernatant retained for HPLC determination of Big ET, ET-1 and CTF. […] Percent inhibiton calculations were made with reference to controls based on quantitation of the ET-1 and Big ET peaks at the end of the incubation period.

CC[C@H](C)[C@H](NC(=O)[C@H](C)N(C(=O)N(C)CCN(C)C)C1CCCCC1)C(=O)N[C@@H](Cc1ccc2ccccc2c1)[C@@H](O)[C@@H](O)CC(C)C [Example 54, (2S,3R,4S)-2-{[{N-(N,N-Dimethylaminoethyl)-N-methylamino}carbonyl -Cyclohexylalanyl-Isoleucyl]amino}-1-(2-naphthyl)-3,4-dihydroxy-6-methylheptane] and CC[C@H](C)[C@H](NC(=O)[C@H](C)N(C1CCCCC1)S(=O)(=O)N1CCN(C)CC1)C(=O)N[C@@H](Cc1ccc2ccccc2c1)[C@@H](O)[C@@H](O)CC(C)C [Example 55, (2S,3R,4S)-2-{[N-(4-Methylpiperazin-1-yl-sulfonyl)-Cyclohexylalanyl-Isoleucyl]amino}-1-(2-naphthyl)-3,4-dihydroxy-6-methylheptane] are the same in IC50: 5 nM for the first, 5 nM for the second.

CCC(C)C(NC(=O)C(CC(C)(C)C)NC(=O)OC(C)(C)C)C(=O)NC(CC(C)C)C(O)CC(=O)O (stereo not shown) [Example 45, N-Boc-tert-Butylalanyl-Isoleucyl-Statyl-OH] and CCOC(=O)CC(O)C(CC(C)C)NC(=O)C(NC(=O)[C@@H](NC(=O)OC(C)(C)C)C(C)(C)C)C(C)CC (stereo partly drawn) [Example 1, N-{(S)-2-[(tert-Butyloxycarbonyl]amino]-3,3-dimethylbutanoyl}-Isoleucyl-Statyl Ethyl ester] are within 1.5-fold of each other in IC50: 51 nM for the first, 50 nM for the second.

Compared with CCC(C)C(NC(=O)C(CC(=O)OCc1ccccc1)NC(=O)OC(C)(C)C)C(=O)NC(C(=O)N[C@@H](CC1CCCCC1)[C@@H](O)[C@@H](O)CC(C)C)C(C)CC (stereo partly drawn) [Example 26, (2S,3R,4S)-2-(N-BOC-Aspartyl(β-O-Benzyl)-Isoleucyl-Isoleucyl -Amino)-1-cyclohexyl-3,4-dihydroxy-6-methylheptane], CCC(C)C(NC(=O)C(CC(=O)OCc1ccccc1)NC(=O)OC(C)(C)C)C(=O)NC(C(=O)N[C@@H](Cc1ccc2ccccc2c1)[C@@H](O)[C@@H](O)CC(C)C)C(C)CC (stereo partly drawn) [Example 46, (2S,3R,4S)-2-{[N-Boc-Aspartyl(β-O-Benzyl)-Isoleucyl-Isoleucyl]amino}-1-(2-naphthyl)-3,4-dihydroxy-6-methylheptane] is 1.8-fold lower in IC50: 7 nM for the first, 4 nM for the second. The second is the more potent here.

First: CC[C@H](C)[C@H](NC(=O)CCC(=O)O)C(=O)N[C@H](C(=O)N[C@@H](CC1CCCCC1)[C@@H](O)[C@@H](O)CC(C)C)[C@@H](C)CC [Example 25, (2S,3R,4S)-2-(N-Succinyl-Isoleucyl-Isoleucyl-Amino)-1-cyclohexyl-3,4-dihydroxy-6-methylheptane]
Second: CC[C@H](C)[C@H](NC(C)=O)C(=O)N[C@H](C(=O)N[C@@H](CC1CCCCC1)[C@@H](O)[C@@H](O)CC(C)C)[C@@H](C)CC [Example 27, (2S,3R,4S)-2-(N-Acetyl-Isoleucyl-Isoleucyl-Amino)-1-cyclohexyl-3,4-dihydroxy-6-methylheptane]
The IC50 of the first is 1.7-fold lower: 17 nM for the first, 29 nM for the second.

First: CCC(C)C(NC(=O)C(CC1CCCCC1)NC(=O)OC(C)(C)C)C(=O)NC(CC(C)C)C(O)CC(=O)O (stereo not shown) [Example 15, N-Boc-Cyclohexylalanyl-Isoleucyl-Statyl-OH]
Second: CCOC(=O)CC(O)C(CC(C)C)NC(=O)C(NC(=O)C(CC1CCCCC1)NC(=O)OC(C)(C)C)C(C)CC (stereo not shown) [Example 12, N-Boc-Cyclohexylalanyl-Isoleucyl-Statyl Ethyl ester]
The IC50 of the first is 2.5-fold higher: 47 nM for the first, 19 nM for the second. The second is the more potent here.

CCC(C)C(NC(=O)OC(C)(C)C)C(=O)NC(C(=O)NC(CC(C)C)C(O)CC(=O)N(C)CC(C)C)C(C)CC (stereo not shown) [Example 52, N-Boc-Isoleucyl-Isoleucyl-Statyl N-Methyl-N-Isobutyl Carboxamide] and CCC(C)C(NC(=O)OC(C)(C)C)C(=O)NC(C(=O)NC(CC(C)C)C(O)CC(=O)NCC(C)C)C(C)CC (stereo not shown) [Example 14, N-Boc-Isoleucyl-Isoleucyl-Statyl Isobutylcarboxamide] are within 1.5-fold of each other in IC50: 10 nM for the first, 8 nM for the second.

Compared with CCC(C)C(NC(=O)C(CC1CCCCC1)NC(=O)N1CCOCC1)C(=O)N[C@@H](Cc1ccc2ccccc2c1)[C@@H](O)[C@@H](O)CC(C)C (stereo partly drawn) [Example 53, (2S,3R,4S)-2-{[N-(Morpholin-1-yl-carbonyl)-Cyclohexylalanyl-Isoleucyl]amino}-1-(2-naphthyl)-3,4-dihydroxy-6-methylheptane], CCC(C)C(NC(=O)C(CC1CCCCC1)NC(=O)N1CCN(C)CC1)C(=O)N[C@@H](Cc1ccc2ccccc2c1)[C@@H](O)[C@@H](O)CC(C)C (stereo partly drawn) [Example 43, (2S,3R,4S)-2-{[IN-(4-Methylpiperazin-1-yl-carbonyl)-Cyclohexylalanyl-Isoleucyl]amino}-1-(2-naphthyl)-3,4-dihydroxy-6-methylheptane Hydrochloride] is 2-fold higher in IC50: 3 nM for the first, 6 nM for the second. The first is the more potent here.

Compared with CCC(C)C(NC(=O)C(CC1CCCCC1)NC(=O)OC(C)(C)C)C(=O)NC(CC(C)C)C(O)CC(=O)NCCN(C)C (stereo not shown) [Example 41, N-Boc-Cyclohexylalanyl-Isoleucyl-Statyl N-(2-N',N'-Dimethylaminoethyl)Carboxamide], CCC(C)C(NC(=O)C(CC1CCCCC1)NC(=O)OC(C)(C)C)C(=O)NC(CC(C)C)C(O)CC(=O)NCC(C)C (stereo not shown) [Example 39, N-Boc-Cyclohexylalanyl-Isoleucyl-Statyl Isobutylcarboxamide] is 1.9-fold lower in IC50: 18 nM for the first, 9.5 nM for the second. The second is the more potent here.

Going from CCC(C)C(NC(=O)C(CC1CCCCC1)NC(=O)OC(C)(C)C)C(=O)NC(CC(C)C)C(O)CC(=O)NCCc1ccccn1 (stereo not shown) [Example 40, N-Boc-Cyclohexylalanyl-Isoleucyl-Statyl N-(2-(2-Pyridyl)ethyl)Carboxamide] to CCC(C)C(NC(=O)OC(C)(C)C)C(=O)NC(C(=O)NC(CC(C)C)C(O)CC(=O)NCCc1ccccn1)C(C)CC (stereo not shown) [Example 47, N-Boc-Isoleucyl-Isoleucyl-Statyl N-(2-(2-Pyridyl)ethyl)Carboxamide], the IC50 rises from 10 nM to 20 nM (2-fold). The first is the more potent here.

CCC(C)C(NC(=O)C(CC1CCCCC1)NC(=O)OC(C)(C)C)C(=O)N[C@@H](Cc1c[nH]c2ccccc12)C(O)CC(=O)NC(C(=O)O)C(C)C (stereo partly drawn) [Example 23, N-[(4S)-4-(N-Boc-Cyclohexylalanyl-Isoleucyl-Amino)-5-(3-indolyl)-3-hydroxypentanoyl]-Valyl-OH] and CCC(C)C(NC(=O)OC(C)(C)C)C(=O)NC(C(=O)NC(CC(C)C)C(O)CC(=O)NCC1CCCCC1)C(C)CC (stereo not shown) [Example 35, N-Boc-Isoleucyl-Isoleucyl-Statyl Cyclohexylmethylcarboxamide] are within 1.5-fold of each other in IC50: 24 nM for the first, 17 nM for the second.

Going from CCC(C)C(NC(=O)OC(C)(C)C)C(=O)NC(C(=O)NC(CC(C)C)C(O)CC(=O)NCCC(C)C)C(C)CC (stereo not shown) [Example 34, N-Boc-Isoleucyl-Isoleucyl-Statyl Isoamylcarboxamide] to CCC(C)C(NC(=O)OC(C)(C)C)C(=O)NC(C(=O)NC(CC(C)C)C(O)CC(=O)NCCC(=O)O)C(C)CC (stereo not drawn) [Example 16, N-Boc-Isoleucyl-Isoleucyl-Statyl-β-Alanyl-OH], the IC50 rises from 19 nM to 30 nM (1.6-fold). The first is the more potent here.

Compared with CCC(C)C(NC(=O)OC(C)(C)C)C(=O)NC(C(=O)NC(CC(C)C)C(O)CC(=O)NCCCCCCO)C(C)CC (stereo not shown) [Example 8, N-Boc-Isoleucyl-Isoleucyl-Statyl (6-Hydroxyhexyl)carboxamide], CCC(C)C(NC(=O)OC(C)(C)C)C(=O)NC(C(=O)NC(CC(C)C)C(O)CC(=O)NCCCCCO)C(C)CC (stereo not shown) [Example 7, N-Boc-Isoleucyl-Isoleucyl-Statyl (5-Hydroxyamyl)carboxamide] is 1.7-fold higher in IC50: 39 nM for the first, 68 nM for the second. The first is the more potent here.

Going from CC[C@H](C)[C@H](NC(=O)OCc1ccccc1)C(=O)N[C@H](C(=O)NC(CC(C)C)P(=O)(O)CC(=O)OC(C)(C)C)[C@@H](C)CC (stereo partly shown) [Example 33, [1-[N-Cbz-Isoleucyl-Isoleucyl-Amino]-3-methylbutyl (hydroxy)phosphinyl]acetic acid tert-Butyl ester] to CCOC(=O)CCNC(=O)CC(O)C(CC(C)C)NC(=O)C(NC(=O)C(NC(=O)OC(C)(C)C)C(C)CC)C(C)CC (stereo not drawn) [Example 13, N-Boc-Isoleucyl-Isoleucyl-Statyl-β-Alanyl Ethyl ester], the IC50 falls from 33 nM to 17 nM (1.9-fold). The second is the more potent here.

CC[C@H](C)[C@H](NC(=O)OC(C)(C)C)C(=O)N[C@H](C(=O)N[C@@H](CC1CCCCC1)[C@@H](O)[C@@H](O)CC(C)C)[C@@H](C)CC [Example 24, (2S,3R,4S)-2-(N-Boc-Isoleucyl-Isoleucyl-Amino)-1-cyclohexyl-3,4-dihydroxy-6-methylheptane] and CCC(C)C(NC(=O)C(CC1CCCCC1)NC(=O)OC(C)(C)C)C(=O)N[C@@H](CC1CCCCC1)[C@@H](O)[C@@H](O)CC(C)C (stereo partly shown) [Example 28] are within 1.5-fold of each other in IC50: 7 nM for the first, 9 nM for the second.

Going from CCC(C)C(NC(=O)C(CC1CCCCC1)NC(=O)CCC(=O)O)C(=O)N[C@@H](Cc1ccc2ccccc2c1)[C@@H](O)[C@@H](O)CC(C)C (stereo partly drawn) [Example 48, (2S,3R,4S)-2-{[N-Succinyl-Cyclohexylalanyl-Isoleucyl]amino}-1-(2-naphthyl)-3,4-dihydroxy-6-methylheptane] to CCC(C)C(NC(=O)C(CC1CCCCC1)NC(=O)OC(C)(C)C)C(=O)NC(CC(C)C)C(O)CC(=O)NCCN1CCOCC1 (stereo not shown) [Example 42, N-Boc-Cyclohexylalanyl-Isoleucyl-Statyl N-(2-(Morpholin-4-yl)ethyl)Carboxamide], the IC50 rises from 7 nM to 16 nM (2.3-fold). The first is the more potent here.

Molecule CCC(C)C(NC(=O)OC(C)(C)C)C(=O)NC(C(=O)NC(CC(C)C)C(O)CC(=O)NCCCCO)C(C)CC (stereo not shown) [Example 6, N-Boc-Isoleucyl-Isoleucyl-Statyl (4-Hydroxybutyl)carboxamide] has an IC50 of 57 nM.
